Assays:
[1] = molecular target: T1, IDO in IFN-γ induced HeLa cells (Homo sapiens, UniProt P14902); assay: IDO Hela cells assay (kynurenine formation); type: cell-based; settings: for IFN-γ induced IDO activity in HeLa cell lines inhibited by IDO inhibitors: FIG. 2
T1 construct: native IDO in HeLa cells; endogenous in cells; host or cells: HeLa cells stimulated with human IFN-γ
Protocol: Hela cells assay was carried out according to the reference (Takikawa, O., et al. (1988). “Mechanism of interferon-gamma action. Characterization of indoleamine 2,3-dioxygenase in cultured human cells induced by interferon-gamma and evaluation of the enzyme-mediated tryptophan degradation in its anticellular activity.” J Biol Chem 263(4):2041-2048; Yue, E. W., et al. (2009). “Discovery of potent competitive inhibitors of indoleamine 2,3-dioxygenase with in vivo pharmacodynamic activity and efficacy in a mouse melanoma model.” J Med Chem 52(23): 7364-7367) with minor modification. HeLa cells were routinely maintained in Earle's Minimum Essential Medium (EMEM) (ATCC 30-2003) and 10% fetal bovine serum. Cells were kept at 37° C. in a humidified incubator supplied with 5% CO2. The assay was performed as follows: HeLa cells were seeded in a 96 well culture plate at a density of 5×10^3 per well in 100 μL culture media. After grown overnight (16 h), human IFN-γ (50 ng/mL final concentration) and serial dilutions of compounds in 100 μL culture medium per well were added into cells. After an additional 48 hours of incubation, 140 μL of the supernatant per well was transferred to a new 96 well plate. Ten microliters of 6.1 N trichloroacetic acid were mixed into each well and incubated at 50° C. for 30 min to hydrolyze N-formylkynurenine produced by IDO to kynurenine. The reaction mixture was then centrifuged for 10 min at 2500 rpm to remove sediments. One hundred microliters of the supernatant per well were transferred to another 96 well plate and mixed with 100 μL of 2% (w/v) p-dimethylaminobenzaldehyde in acetic acid. The yellow color derived from kynurenine was measured at 492 nm using a SPECTRAmax 250 microplate reader. L-Kynurenine, used as the standard, was prepared in a series of concentrations (200, 100, 50, […], 12.5, 6.3, 3.2, 1.6 μM) in 100 μL HeLa cell culture media and analyzed in the same procedure. The percent inhibition at individual concentrations was determined and the average values of duplicates were obtained. The data was processed using nonlinear regression to generate IC50 values (Prism Graphpad).

Human IDO = molecular target: T2, Human IDO (Homo sapiens, UniProt P14902); assay: IDO enzyme assay; type: biochemical; settings: enzyme activity remaining at different inhibitor concentrations
T2 construct: purchased enzolifesciences ALX-201-333-C050
Protocol: The assays were performed at room temperature as described as literature reported with minor revision. […] In each well of 96 well-plate, 10 μL of Human IDO (0.05 mg/mL in KHPO4, 50 mM, PH 6.5) was added into 39 μL buffers (KHPO4, 50 mM, PH 6.5) and 1 μL inhibitor buffer in DMSO (2000, 600, 200, 60, 20, 6, 2, 0.6, 0.2 μM). Then, 50 μL the substrate buffer (4 mM L-tryptophan, 40 mM ascorbate, 20 μM methylene blue, 0.2 mg/mL catalase) was mixed into each well and incubated at 37° C. for 2 hours. Then, 10 μL of 6.1N trichloroacetic acid was mixed into each well and incubated at 52° C. for 30 min to hydrolyze N-formylkynurenine produced by IDO to kynurenine. The reaction mixture was incubated with 100 μL of 0.02 g/mL p-(dimethylamino)benzaldehyde in acetic acid at room temperature for 10 minutes. […] L-Kynurenine used as the standard, was prepared in a series of concentrations (1000, 500, 200, 100, 50, 20, 10 μM). The percent inhibition at individual concentrations was determined and the average values of duplicates were obtained. The data was processed using nonlinear regression to generate IC50 values (Prism Graphpad).

[2] = in vivo; cited from earlier work
[3] = test system: IFN-γ stimulated HeLa cells; assay: Hela cell uptake of radioligands; type: cell-based, human
Protocol: HeLa cells were seeded in a 24 well culture plate at a density of 2×10^4 per well in 400 μL culture media w/FBS. After grown overnight (16 h), human IFN-γ (25 ng/well, 50 ng/mL final concentration) in 100 μL DMEM w/FBS were added into cells. The cells were rinsed with phosphate-buffered saline (PBS), and 500 μL of Earle's Minimum Essential Medium (EMEM) (ATCC 30-2003) and 10% fetal bovine serum was added to the culture wells. […] At each given time point, the cell supernatants were discard and wash the cells with PBS (0.5 mL) 3 times, the cells were subsequently lysed with 150 μL of trypsin-EDTA in each well and incubated for 5 min at 37° C., then collect the cell digestion solution and add another 150 μL of PBS into each well to collect the cells. All measurements were performed with a γ-counter (Wizard; PerkinElmer).
HeLa, PANCO2,HCT116 and 4T1 cells were selected and those cells were then cultured in the absence or presence of IFN-γ as described followed by Western Blotting to confirm IDO expression.

Hela tumor xenografts = assay: MicroPET imaging of Hela tumor xenografts; type: in vivo, mice; settings: for tracer accumulation in tumor: PET
Protocol: Female athymic C57BL/6 nude mice (4-6 weeks old) were ordered from Charles River Laboratories (Stone Ridge, N.Y., U.S.A.) and housed in a temperature and humidity controlled room. After 7 to 14 days of acclimatization, a total of 5×10^6 Hela cells were inoculated subcutaneously in 200 μL serum-free medium into the right flank of hind leg. Once tumors reach an appropriate size (3-4 mm in diameter) the mice were randomized into 5 groups (4/group). Then the mice in every group were randomized into two subgroups (rHu IFN-γ treatment or no rHu IFN-γ treatment). All the rHu IFN-γ treatment mice were injected i.p. of 1.5×10^5 U rHu IFN-γ/mouse/day. 24 h later, group one of mice were anesthetized by gas inhalation (2% vol/vol isoflurane in oxygen), then mice were euthanized and tumor tissues were dissected for further IDO western blotting and IHC in vitro. The same operation can be repeated at 48 h, 72 h, 96 h and 120 h points.
In order to evaluate the in vivo imaging performance of [^18F]IDO49 to IDO tumors, microPET imaging was performed on nude mice bearing Hela tumor xenografts both rHu IFN-γ treatment and none rHu IFN-γ treatment using the Inveon small-animal PET/CT scanner (Siemens). Anesthesia was induced with 4-5% isoflurane and maintained with 1-3% isofluorane delivered with a mixed air/oxygen through a closed nose cone throughout the PET imaging session. Mice bearing Hela tumor xenografts with rHu IFN-γ treatment were injected with 3.70-7.40 MBq (100-200 μCi) of [^18F]IDO49 in 200 μL of saline, and the baseline control mice with none rHu IFN-γ treatment was injected with the same radiotracer. PET data were collected for 90 min following radioligand administration and reconstructed into 38 dynamic frames of increasing length (6×10, 6×20, 4×30, 9×60, 2×180, 8×300, and 3×600 s). For a comparative study, [^11C]AMT PET imaging scan was also performed on Hela tumor mice at 60 min after intravenous injection of [^11C]AMT PET (3.7 MBq). The images were reconstructed and the regions of interest (ROIs) were drawn over the tumor and muscle, PET images were converted to percent injected dose per gram (%ID/g of tissue) for evaluation of tumor specificity. Image analysis was performed using the Inevon Research Workplace software.

[4] = Lipophilicity determination (shake-flask, n-octanol/PBS pH 7.4); type: physicochemical; settings: n-octanol/buffer pH 7.4, shake-flask
Protocol: [^18F]IDO49 (2-30 kBq in 30 μL of water) was added to a two-layer system of n-octanol (500 μL) and 0.1M phosphate buffered saline (PBS) pH 7.4 (500 μL) in an eppendorf vial. The vessel was vortexed for 3 min and then centrifuged at 10000 rpm for 2 min. An aliquot of each layer (100 μL) was assessed for radioactivity in a wiper counter. The partition coefficient (logD7.4) was calculated as the decimal logarithm of the ratio between the counted radioactivity in the n-octanol layer and the counted radioactivity in the aqueous layer. logD7.4=(Count of n-octanol sample−Count of background)/(Count of PBS sample−Count of background). CLogP (calculated LogP) values were determined using CHEMBIODRAW ULTRA 12.0 software (Cambridge soft. Perkin-Elmer, Waltham, Mass., USA).
LogD (n-octanol/buffer pH 7.4 partition coefficient) of [^18F]IDO49 was measured using the shake-flask method and the calculated LogP (cLogP, n-octanol/water partition coefficient) was determined using CHEMBIODRAW software.

[5] = molecular target: T3, IDO in IFN-γ stimulated HeLa cells (Homo sapiens, UniProt P14902); assay: Competitive cell-binding assay; type: cell-based; settings: blocking with INCB024360 and NLG919, FIG. 8
T3 construct: native IDO in HeLa cells; endogenous in cells; host or cells: HeLa cells stimulated with human IFN-γ
Protocol: All measurements were performed with a γ-counter (Wizard; PerkinElmer). The specificities of radioligands were determined as percentage.

[6] = IFN-γ treatment Hela tumor mice

T1 sequence (P14902 whole entry): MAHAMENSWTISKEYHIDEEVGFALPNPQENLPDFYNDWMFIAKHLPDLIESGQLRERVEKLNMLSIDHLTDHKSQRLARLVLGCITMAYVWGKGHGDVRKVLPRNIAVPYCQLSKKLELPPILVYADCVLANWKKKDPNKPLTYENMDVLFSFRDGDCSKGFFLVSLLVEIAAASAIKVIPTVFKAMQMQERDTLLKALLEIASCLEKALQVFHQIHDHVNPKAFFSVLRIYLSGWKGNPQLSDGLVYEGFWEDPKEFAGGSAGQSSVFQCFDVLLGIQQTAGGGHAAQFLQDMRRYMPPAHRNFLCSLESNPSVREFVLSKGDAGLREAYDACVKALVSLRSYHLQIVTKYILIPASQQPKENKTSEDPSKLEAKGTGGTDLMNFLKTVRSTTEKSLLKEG
T2 sequence (P14902 whole entry): as above
T3 sequence (P14902 whole entry): as above

## Nc1nonc1C(=NO)Nc1ccc(F)c(Cl)c1 [IDO5L, 4-amino-N-(3-chloro-4-fluorophenyl)-N′-hydroxy-1,2,5-oxadiazole-3-carboximidamide, reference compound]
[1]
  potency in HeLa cell-based assays compared with enzyme assays: slightly more potent
  IFN-γ induced IDO activity in HeLa cell lines inhibited by IDO inhibitors: inhibited
Human IDO
  affinity of human IDO for compound: higher affinity

## ON=C(Nc1ccc(F)c(Cl)c1)c1nonc1NCCF [IDO49]
[1]
  potency in HeLa cell-based assays compared with enzyme assays: slightly more potent
  IFN-γ induced IDO activity in HeLa cell lines inhibited by IDO inhibitors: inhibited
Human IDO
  affinity of human IDO for compound: higher affinity

## NS(=O)(=O)NCCNc1nonc1C(=NO)Nc1ccc(F)c(Br)c1 [INCB024360]
[2]
  clearance t1/2: < 30 min

## Cn1cc(C[C@H](N)C(=O)O)c2ccccc21 [L-1-MT]
[3]; Hela cells, 120 mins, FIG. 7B
  inhibition of IDO activity (cell uptake of [18F]IDO5L): strong inhibition

## C[C@](N)(Cc1c[nH]c2ccccc12)C(=O)O [[^11C]AMT, α-[^11C] methyl-L-tryptophan, reference compound]
Hela tumor xenografts; [6]
  tracer accumulation in tumor: significant tracer accumulation

## Nc1nonc1C(=NO)Nc1ccc([18F])c(Cl)c1 [[^18F]IDO5L, [^18F] 4-amino-N-(3-chloro-4-fluorophenyl)-N′-hydroxy-1,2,5-oxadiazole-3-carboximidamide, reference compound]
[3]; all time points, PANCO2, HCT116, 4T1 as comparison
  uptake in IFN-γ stimulated HeLa cells compared with other cell lines: remarkably greater
[4]
  logD7.4: 2.13±0.11

## ON=C(Nc1ccc(F)c(Cl)c1)c1nonc1NCC[18F] [[^18F]IDO49]
[5]
  specific binding to IDO in vitro: high specific binding
Hela tumor xenografts; 60 min dynamic scan
  radioactive uptake in the kidney: high
Hela tumor xenografts; 60 min post-injection, IFN-γ treatment Hela tumor mice
  tumor to muscle (T/M) relative uptake ratio, peak: 2.29±0.05
Hela tumor xenografts; [6]
  tracer accumulation in tumor: selectively accumulated
Hela tumor xenografts; summed images of dynamic microPET scans
  average SUV of the tumor, IFN-γ treatment vs none treatment: higher than none treatment
[3]; IFN-γ stimulation, different time points
  retention in IDO expression Hela cell line: retained at favorable levels
[4]
  logD7.4: 1.37±0.02

Reference: patent US20190185439A1, “RADIOFLUORINATED CARBOXIMIDAMIDES AS IDO TARGETING PET TRACER FOR CANCER IMAGING” (H. LEE MOFFITT CANCER CENTER & RESEARCH INSTITUTE, INC., priority 2016, published 2019)
